The subject of the assay is P388. Nature of the assay: Antitumor activity against mouse P388 cells. In kind it is functional, cell-based.

The source made the active and inactive calls. No cut-off for these calls is given here.

Here are results for one compound from ChEMBL document CHEMBL1151390, “Microbial Transformations of Natural Antitumor Agents. 20. Glucosylation of Viridi-catumtoxin” (J Nat Prod, 1982).

As to `COc1cc(O)c2c(O[C@@H]3O[C@H](CO)[C@@H](O)[C@H](O)[C@H]3O)c3c(c4c2c1[C@@]1(C4)C(C)=CCCC1(C)C)[C@H](O)[C@@]1(O)CC(O)=C(C(N)=O)C(=O)[C@@]1(O)C3=O`, the result was inactive.
